Experimental data published in PubChem BioAssay (NCI).
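The compound was tested at five concentrations on cells cultured in 96-well plates, with a 48-hour exposure period. At the GI50, growth is halved. The concentration for full growth arrest is given as TGI.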

What was measured:
Assay in all cases: NCI tumour cell line growth inhibition, 48 h
786-0 renal = test system: 786-0 renal
A549 NSCLC = test system: A549 NSCLC
ACHN renal = test system: ACHN renal
BT-549 breast = test system: BT-549 breast
CAKI-1 renal = test system: CAKI-1 renal
CCRF-CEM leukemia = test system: CCRF-CEM leukemia
COLO 205 colon = test system: COLO 205 colon
DU-145 prostate = test system: DU-145 prostate
EKVX NSCLC = test system: EKVX NSCLC
HCC-2998 colon = test system: HCC-2998 colon
HCT-116 colon = test system: HCT-116 colon
HCT-15 colon = test system: HCT-15 colon
HL-60(TB) leukemia = test system: HL-60(TB) leukemia
HOP-62 NSCLC = test system: HOP-62 NSCLC
HS 578T breast = test system: HS 578T breast
HT29 colon = test system: HT29 colon
IGROV1 ovarian = test system: IGROV1 ovarian
K-562 leukemia = test system: K-562 leukemia
KM12 colon = test system: KM12 colon
M14 melanoma = test system: M14 melanoma
MALME-3M melanoma = test system: MALME-3M melanoma
MCF7 breast = test system: MCF7 breast
MDA-MB-231 breast = test system: MDA-MB-231 breast
MDA-MB-435 = test system: MDA-MB-435
MOLT-4 leukemia = test system: MOLT-4 leukemia
NCI-H23 lung = test system: NCI-H23 lung
NCI-H460 lung = test system: NCI-H460 lung
NCI-H522 lung = test system: NCI-H522 lung
NCI/ADR-RES ovarian = test system: NCI/ADR-RES ovarian
OVCAR-3 ovarian = test system: OVCAR-3 ovarian
OVCAR-4 ovarian = test system: OVCAR-4 ovarian
OVCAR-5 ovarian = test system: OVCAR-5 ovarian
OVCAR-8 ovarian = test system: OVCAR-8 ovarian
PC-3 prostate = test system: PC-3 prostate
RPMI-8226 leukemia = test system: RPMI-8226 leukemia
RXF 393 renal = test system: RXF 393 renal
SF-268 CNS = test system: SF-268 CNS
SF-295 CNS = test system: SF-295 CNS
SF-539 CNS = test system: SF-539 CNS
SK-MEL-2 melanoma = test system: SK-MEL-2 melanoma
SK-MEL-28 melanoma = test system: SK-MEL-28 melanoma
SK-MEL-5 melanoma = test system: SK-MEL-5 melanoma
SK-OV-3 ovarian = test system: SK-OV-3 ovarian
SN12C renal = test system: SN12C renal
SNB-19 CNS = test system: SNB-19 CNS
SNB-75 CNS = test system: SNB-75 CNS
SR leukemia = test system: SR leukemia
SW-620 colon = test system: SW-620 colon
T-47D breast = test system: T-47D breast
TK-10 renal = test system: TK-10 renal
U251 CNS = test system: U251 CNS
UACC-257 melanoma = test system: UACC-257 melanoma
UACC-62 melanoma = test system: UACC-62 melanoma
HOP-92 NSCLC = test system: HOP-92 NSCLC
LOX IMVI melanoma = test system: LOX IMVI melanoma
NCI-H226 lung = test system: NCI-H226 lung
UO-31 renal = test system: UO-31 renal

In the case of `Cc1cc2ccccc2n2c1nc1ccc(O)cc12`, the TGI (786-0 renal) is reported as over 10 µM, the TGI (A549 NSCLC) is reported as over 10 µM and the TGI (ACHN renal) is reported as over 10 µM. It also gave a TGI (BT-549 breast) of over 10 µM, a TGI (CAKI-1 renal) of over 10 µM and a TGI (CCRF-CEM leukemia) of over 10 µM. For the same compound, the TGI (COLO 205 colon) was over 10 µM, the TGI (DU-145 prostate) was over 10 µM and the TGI (EKVX NSCLC) was over 10 µM. For the same compound, the TGI (HCC-2998 colon) was over 10 µM, the TGI (HCT-116 colon) was over 10 µM and the TGI (HCT-15 colon) was over 10 µM. The TGI (HL-60(TB) leukemia) was over 10 µM, the TGI (HOP-62 NSCLC) was over 10 µM and the TGI (HS 578T breast) was over 10 µM. For the same compound, the TGI (HT29 colon) was over 10 µM, the TGI (IGROV1 ovarian) was over 10 µM and the TGI (K-562 leukemia) was over 10 µM. It also gave a TGI (KM12 colon) of over 10 µM, a TGI (M14 melanoma) of over 10 µM and a TGI (MALME-3M melanoma) of over 10 µM. The TGI (MCF7 breast) was over 10 µM, the TGI (MDA-MB-231 breast) was over 10 µM and the TGI (MDA-MB-435) was over 10 µM. For the same compound, the TGI (MOLT-4 leukemia) was over 10 µM, the TGI (NCI-H23 lung) was over 10 µM and the TGI (NCI-H460 lung) was over 10 µM. The TGI (NCI-H522 lung) was over 10 µM, the TGI (NCI/ADR-RES ovarian) was over 10 µM and the TGI (OVCAR-3 ovarian) was over 10 µM. For the same compound, the TGI (OVCAR-4 ovarian) was over 10 µM, the TGI (OVCAR-5 ovarian) was over 10 µM and the TGI (OVCAR-8 ovarian) was over 10 µM. For the same compound, the TGI (PC-3 prostate) was over 10 µM, the TGI (RPMI-8226 leukemia) was over 10 µM and the TGI (RXF 393 renal) was over 10 µM. It also gave a TGI (SF-268 CNS) of over 10 µM, a TGI (SF-295 CNS) of over 10 µM and a TGI (SF-539 CNS) of over 10 µM. It also gave a TGI (SK-MEL-2 melanoma) of over 10 µM, a TGI (SK-MEL-28 melanoma) of over 10 µM and a TGI (SK-MEL-5 melanoma) of over 10 µM. It also gave a TGI (SK-OV-3 ovarian) of over 10 µM, a TGI (SN12C renal) of over 10 µM and a TGI (SNB-19 CNS) of over 10 µM. It also gave a TGI (SNB-75 CNS) of over 10 µM, a TGI (SR leukemia) of over 10 µM and a TGI (SW-620 colon) of over 10 µM. For the same compound, the TGI (T-47D breast) was over 10 µM, the TGI (TK-10 renal) was over 10 µM and the TGI (U251 CNS) was over 10 µM. For the same compound, the TGI (UACC-257 melanoma) was over 10 µM and the TGI (UACC-62 melanoma) was over 10 µM.
Work on `Cn1cc(-c2csc(-c3ccc(Cl)cc3)n2)c2cccnc21` yielded a GI50 (786-0 renal) of 16.3 µM, a TGI (786-0 renal) of 32.4 µM and a GI50 (A549 NSCLC) of 17.6 µM. It also gave a TGI (A549 NSCLC) of 46.4 µM, a GI50 (ACHN renal) of 14.1 µM and a TGI (ACHN renal) of 29.2 µM. The GI50 (BT-549 breast) was 18.6 µM, the TGI (BT-549 breast) was 51.9 µM and the GI50 (CAKI-1 renal) was 6.99 µM. The TGI (CAKI-1 renal) was 25.6 µM, the GI50 (CCRF-CEM leukemia) was 18.4 µM and the TGI (CCRF-CEM leukemia) was 51.9 µM. The GI50 (COLO 205 colon) was 13.7 µM, the TGI (COLO 205 colon) was 26.6 µM and the GI50 (DU-145 prostate) was 15.3 µM. The TGI (DU-145 prostate) was 28.9 µM, the GI50 (EKVX NSCLC) was 2.85 µM and the TGI (EKVX NSCLC) was 26.1 µM. It also gave a GI50 (HCC-2998 colon) of 14.6 µM, a TGI (HCC-2998 colon) of 28.8 µM and a GI50 (HCT-116 colon) of 12.8 µM. The TGI (HCT-116 colon) was 25.4 µM, the GI50 (HCT-15 colon) was 12.2 µM and the TGI (HCT-15 colon) was 29.3 µM. The GI50 (HL-60(TB) leukemia) was 10.4 µM, the TGI (HL-60(TB) leukemia) was 47.5 µM and the GI50 (HOP-62 NSCLC) was 17.2 µM. It also gave a TGI (HOP-62 NSCLC) of 32.4 µM, a GI50 (HOP-92 NSCLC) of 2.54 µM and a TGI (HOP-92 NSCLC) of 19.1 µM. It also gave a GI50 (HS 578T breast) of 12 µM, a TGI (HS 578T breast) of 34.4 µM and a GI50 (HT29 colon) of 13.2 µM. It also gave a TGI (HT29 colon) of 25.9 µM, a GI50 (IGROV1 ovarian) of 22.3 µM and a TGI (IGROV1 ovarian) of over 100 µM. For the same compound, the GI50 (K-562 leukemia) was 12.9 µM, the TGI (K-562 leukemia) was 38.3 µM and the GI50 (KM12 colon) was 13 µM. For the same compound, the TGI (KM12 colon) was 27.6 µM, the GI50 (LOX IMVI melanoma) was 12.4 µM and the TGI (LOX IMVI melanoma) was 24.9 µM. It also gave a GI50 (M14 melanoma) of 12 µM, a TGI (M14 melanoma) of 24.8 µM and a GI50 (MALME-3M melanoma) of 14.8 µM. For the same compound, the TGI (MALME-3M melanoma) was 42.2 µM, the GI50 (MCF7 breast) was 11.9 µM and the TGI (MCF7 breast) was 29.8 µM. The GI50 (MDA-MB-231 breast) was 13.3 µM, the TGI (MDA-MB-231 breast) was 33.3 µM and the GI50 (MDA-MB-435) was 12.8 µM. The TGI (MDA-MB-435) was 33.6 µM, the GI50 (MOLT-4 leukemia) was 12.4 µM and the TGI (MOLT-4 leukemia) was 38.6 µM. For the same compound, the GI50 (NCI-H226 lung) was 14.8 µM, the TGI (NCI-H226 lung) was 43.6 µM and the GI50 (NCI-H23 lung) was 13.7 µM. The TGI (NCI-H23 lung) was 31 µM, the GI50 (NCI-H460 lung) was 16 µM and the TGI (NCI-H460 lung) was 34.4 µM. It also gave a GI50 (NCI-H522 lung) of 13.6 µM, a TGI (NCI-H522 lung) of 38.2 µM and a GI50 (NCI/ADR-RES ovarian) of 15.8 µM. For the same compound, the TGI (NCI/ADR-RES ovarian) was 34.4 µM, the GI50 (OVCAR-3 ovarian) was 17.1 µM and the TGI (OVCAR-3 ovarian) was 35.6 µM. The GI50 (OVCAR-4 ovarian) was 21.9 µM, the TGI (OVCAR-4 ovarian) was 60.8 µM and the GI50 (OVCAR-5 ovarian) was 14.2 µM. It also gave a TGI (OVCAR-5 ovarian) of 32.7 µM, a GI50 (OVCAR-8 ovarian) of 22.8 µM and a TGI (OVCAR-8 ovarian) of 66.6 µM. It also gave a GI50 (PC-3 prostate) of 11.4 µM, a TGI (PC-3 prostate) of 34.2 µM and a GI50 (RPMI-8226 leukemia) of 12.3 µM. For the same compound, the TGI (RPMI-8226 leukemia) was 78.6 µM, the GI50 (RXF 393 renal) was 13.9 µM and the TGI (RXF 393 renal) was 39.8 µM. It also gave a GI50 (SF-268 CNS) of 15.4 µM, a TGI (SF-268 CNS) of 34 µM and a GI50 (SF-295 CNS) of 15.5 µM. For the same compound, the TGI (SF-295 CNS) was 34.4 µM, the GI50 (SF-539 CNS) was 14.8 µM and the TGI (SF-539 CNS) was 29.5 µM. For the same compound, the GI50 (SK-MEL-2 melanoma) was 17.4 µM, the TGI (SK-MEL-2 melanoma) was 42.5 µM and the GI50 (SK-MEL-28 melanoma) was 15.2 µM. The TGI (SK-MEL-28 melanoma) was 29.4 µM, the GI50 (SK-MEL-5 melanoma) was 13.9 µM and the TGI (SK-MEL-5 melanoma) was 27.6 µM. It also gave a GI50 (SK-OV-3 ovarian) of 15.9 µM, a TGI (SK-OV-3 ovarian) of 39.2 µM and a GI50 (SN12C renal) of 14.8 µM. It also gave a TGI (SN12C renal) of 32.5 µM, a GI50 (SNB-19 CNS) of 13.8 µM and a TGI (SNB-19 CNS) of 30.2 µM. The GI50 (SNB-75 CNS) was 20 µM, the TGI (SNB-75 CNS) was 54.3 µM and the GI50 (SR leukemia) was 13.3 µM. The TGI (SR leukemia) was 59.6 µM, the GI50 (SW-620 colon) was 15 µM and the TGI (SW-620 colon) was 29.3 µM. For the same compound, the GI50 (T-47D breast) was 5.17 µM, the TGI (T-47D breast) was 36.4 µM and the GI50 (TK-10 renal) was 12.4 µM. The TGI (TK-10 renal) was 31.1 µM, the GI50 (U251 CNS) was 14.6 µM and the TGI (U251 CNS) was 29.4 µM. It also gave a GI50 (UACC-257 melanoma) of 19.9 µM, a TGI (UACC-257 melanoma) of 43.5 µM and a GI50 (UACC-62 melanoma) of 10.5 µM. It also gave a TGI (UACC-62 melanoma) of 29.8 µM, a GI50 (UO-31 renal) of 13.6 µM and a TGI (UO-31 renal) of 38.6 µM.
